The values below are quoted from earlier work in US20250186525A1, “DECAFFEINATED YERBA MATE EXTRACT, ANTI-OBESITY COMPOSITION, DECAFFEINATION METHOD AND METHOD FOR THE PRODUCTION OF A YERBA MATE EXTRACT” (priority 2022, published 2025).

SMILES strings stand for the structures.

One data set concerns fat accumulation. Conditions: cell and animal tests.
In the next data set the test system is mice. Conditions: isolated from a hot water extract of yerba mate.

Take `Cn1c(=O)c2c(ncn2C)n(C)c1=O` [caffeine]: in the data set on fatty acid synthase, the “gene expression of fatty acid synthase” value is “reduced”. In addition, the “inhibitory effect on fat accumulation” value in the data set on fat accumulation is given as “showed an inhibitory effect”.
Consider `O=C(/C=C/c1ccc(O)c(O)c1)O[C@@H]1CC(O)(C(=O)O)C[C@@H](OC(=O)/C=C/c2ccc(O)c(O)c2)C1O` (stereo partly shown) [3,5-dicaffeoylquinic acid], for which the food intake result in the data set on mice is on record as “significantly reduces”.
As to `O=C(/C=C/c1ccc(O)c(O)c1)O[C@@H]1C[C@](O)(C(=O)O)C[C@@H](O)[C@H]1O` [chlorogenic acid], the food intake entry in the data set with mice is “significantly reduces”.
